In ChEMBL document CHEMBL1121499, “Experimental antiulcer drugs.4. 1,3-Disubstituted 2,4,5,6-tetrahydro-4,6,6 -trimethyl-2-phenylcyclopenta[c]pyrrole-4-carboxamides” (J Med Chem, 1980):

System: Rattus norvegicus
Assay: Tested for gastric antisecretory activity in the pyloric ligated rat by observing the pH of gastric contents at dose 100 mg/kg orally 1 hr prior to the 5-h pyloric ligation period
Format: ADME, organism-based, Stomach
Parameters: dose 100 mg/kg, route oral
Details: in vivo, po

| Compound | pH |
| --- | --- |
| CC1(C)CC(C)(C(N)=O)c2c1c(C=O)n(-c1ccccc1)c2C=O (stereo not drawn) | 1.2 |
| Cc1c2c(c(C=O)n1-c1ccccc1)C(C)(C)CC2(C)C(N)=O (stereo not drawn) | 1.5 |
| Cc1c2c(c(CO)n1-c1ccccc1)C(C)(C)CC2(C)C(N)=O (stereo not drawn) | 5.7 |
| Cc1c2c(c(CO)n1-c1ccccc1)C(C)(C(N)=O)CC2(C)C (stereo not drawn) | 7 |
| Cc1c2c(c(C=O)n1-c1ccccc1)C(C)(C(N)=O)CC2(C)C (stereo not drawn) | 1.2 |

More lines, now with the values ahead:

| pH | Compound |
| --- | --- |
| 1.5 | CC1(C)CC(C)(C(N)=O)c2cn(-c3ccccc3)c(C=O)c21 (stereo not drawn) |
| 6.2 | Cc1c2c(c(C)n1-c1ccccc1)C(C)(C(N)=O)CC2(C)C (stereo not drawn) |
| 6.4 | CC1(C)CC(C)(C(N)=O)c2cn(-c3ccccc3)c(CO)c21 (stereo not drawn) |
| 2.6 | Cc1c2c(cn1-c1ccccc1)C(C)(C(N)=O)CC2(C)C (stereo not drawn) |

System: Rattus norvegicus
Assay: Tested for gastric antisecretory activity in the pyloric ligated rat by observing the pH of gastric contents at dose 100 mg/kg orally 1 h prior to the 5-h pyloric ligation period; Inactive
Format: organism-based, Stomach
Parameters: dose 100 mg/kg, route oral
Details: in vivo, po

| pH | Compound |
| --- | --- |
| 1.2 | Cc1c2c(cn1-c1ccccc1)C(C)(C)CC2(C)C(N)=O (stereo not drawn) |

System: Rattus norvegicus
Assay: Tested for gastric antisecretory activity in the pyloric ligated rat by observing the pH of gastric contents at dose 100 mg/kg orally 1 hr prior to the 5-h pyloric ligation period; pH < 2 is inactive
Format: ADME, organism-based, Stomach
Parameters: dose 100 mg/kg, route oral
Details: in vivo, po

| pH | Compound |
| --- | --- |
| 1.1 | CCc1c2c(c(CC)n1-c1ccccc1)C(C)(C(N)=O)CC2(C)C (stereo not drawn) |
| 1.1 | CC1(C)CC(C)(C(N)=O)c2cn(-c3ccccc3)cc21 (stereo not drawn) |
| 1.2 | CC1(C)CC(C)(C(N)=O)c2c1c(CO)n(-c1ccccc1)c2CO (stereo not drawn) |
